Data on 32 compounds can be found in patent publication US10858335B2 (Rigel Pharmaceuticals, Inc., priority 2014, dated 2020).

The assay relates to GDF8 signaling (p-SMAD-3 (Ser423/425)). The assay can be described thus: AlphaScreen SureFire SMAD3 (p-Ser423/425) assay, GDF8-stimulated cells (GDF pSMAD). The class given is cell-based. The conditions noted are these: Mus musculus, MPC-11, MPC11; GDF8-stimulated; p-SMAD3 AlphaScreen; read-out: GDF pSMAD (MPC11) (inhibition of GDF8 signaling). The source says: Biological Example 1: AlphaScreen® SureFire® SMAD3 (p-Ser423/425) Assay
The p-SMAD-3 (Ser423/425) SureFire® assay has been designed to measure the phosphorylation of endogenous cellular p-SMAD-3 (Ser423/425) in cell lysates and is a system for the screening of both modulators of receptor activation (e.g. agonists and antagonists) as well as agents acting intracellularly, such as small molecule inhibitors of upstream events. The assay will measure p-SMAD-3 (Ser423/425) activation by either cloned or endogenous receptors, and can be applied to primary cells.
P-SMAD-3 (Ser423/425) SureFire® Assay Protocols
Step A: Preparation of Buffers
1× Lysis buffer: 1 ml of 5× Lysis buffer was diluted with 4 ml of sterile water. After dilution, excess 1× Lysis buffer can be frozen and thawed up to 5 times without loss in activity.
Activation buffer: The buffer was warmed slowly to 37° C. and gently mixed to re-suspend. Activation buffer can be stored at room temperature with no loss in activity.
Reaction buffer: The buffer was kept at 4° C. while in use.
AlphaScreen® Protein A IgG Kit: The kit was stored at 4° C. in the dark.
Reaction buffer+Activation buffer+AlphaScreen® Acceptor beads: Reaction buffer (40 parts), Activation Buffer (10 parts) and Acceptor beads (1 part) were mixed and the mixture was stored at room temperature and used the same day. Mixture was added to 384-well plates; excess mixture was discarded.
Dilution buffer+AlphaScreen® Donor beads: Dilution buffer (20 parts) and Donor beads (1 part) were mixed and the mixture was stored at room temperature and used the same day. Excess mixture was discarded.
Assay control samples: After reconstitution in 250 μl of water, lysates were at −20° C. in single use aliquots.
Step B: Preparation of Samples and Cells
96-well Assay Protocol for 293FT and RMS13 adherent cells can be carried out manually or in high throughput with liquid handling robots.
The cells (80 μL of cells for 96 well plates) were plated in collagen coated tissue culture plates in RPMI or FreeStyle medium (Invitrogen) and incubated overnight. For manual analysis, 6 plates for GDF8, 6 plates for TGFβ, and optionally 6 plates for AlkSca(ALK5 constitutively active) were used.
The compound dilution plates were prepared as follows: 12 μL of DMSO was transferred into first column of 96-well plate, and 16 μL of DMSO was transferred into columns 2-12 of the 96-well plate. 12 μL of compound solution was transferred into first column of the DMSO-containing 96-well plate. Three-fold dilution was performed up to column 10 of the DMSO-containing 96-well plate.
Step C: Treatment and Analysis
The plate containing cells were treated with compounds for about 10 minutes, and then ligand was added. GDF8 or TGFb was added to plates to stimulate. 293FL cells were stimulated for 90 minutes at 37° C.; and RMS13 cells were stimulated for 60 minutes at 37° C. The medium was then removed from the cells, and 1× Lysis Buffer (about 25 μL) was added and the plate was gently agitated on plate shaker for 5-10 minutes.
The lysate (5 μL) was then placed into 384-well shallow plates avoiding the generation of bubbles. To this, the Reaction Buffer+Activation Buffer+AlphaScreen® Acceptor beads mixture (5 μL) was added. The plate was sealed with adhesive cover and shielded from light (e.g., with metal foil), and agitated gently on plate shaker for 2 hours at room temperature.
Dilution buffer+AlphaScreen® Donor beads (2 μL) was then added, and the plate was intubated on the plate shaker for an additional 1½ hours. After completion, the plate was read on Synergy-4 or Enspire plate reader, using AlphaScreen® pSMAD3® settings.
Representative results for inhibition of GDF8 signaling are shown in Table 2(data=GDF pSMAD (MPC11) (μM)): […]
With `Cc1cc(-c2ncccc2-c2ccc3ncc(C(C)O)n3c2)ccc1F` (racemic) [compound 598, rac-1-(6-(2-(4-Fluoro-3-methylphenyl)pyridin-3-yl)imidazo[1,2-a]pyridin-3-yl)ethan-1-ol], the IC50 stood at 2050 nM.

On to `Cc1cc(-c2ncccc2-c2ccc3ncc(C(=O)NC4CC5CCC(C4)N5C)n3c2)ccc1F` (racemic) [compound 711, rac-6-(2-(4-Fluoro-3-methylphenyl)pyridin-3-yl)-N-(8-methyl-8-azabicyclo[3.2.1]octan-3-yl)imidazo[1,2-a]pyridine-3-carboxamide], for which the IC50 worked out at 9280 nM.

Turning to `Cc1cc(-c2ncccc2-c2ccn3ncc(C(=O)NC4CC5CCC(C4)N5C)c3c2)ccc1F` (racemic) [compound 714, rac-5-(2-(4-Fluoro-3-methylphenyl)pyridin-3-yl)-N-(8-methyl-8-azabicyclo[3.2.1]octan-3-yl)pyrazolo[1,5-a]pyridine-3-carboxamide], the IC50 is 5660 nM.

Consider `CCOc1cnc(-c2ccc(F)c(C)c2)c(-c2ccc3[nH]ncc3c2)c1` [Compound 1, 5-(5-Ethoxy-2-(4-fluoro-3-methylphenyl)pyridin-3-yl)-1H-indazole], for which the IC50 was determined as 1650 nM.

Consider `CCOc1cnc(-c2cccc(C)c2)c(-c2ccc3[nH]ncc3c2)c1` [Compound 3, 5-(5-Ethoxy-2-m-tolylpyridin-3-yl)-1H-indazole], for which the IC50 is 1300 nM.

Take `CCOc1cnc(-c2ccc(F)cc2)c(-c2ccc3[nH]ncc3c2)c1` [Compound 6, 5-(5-Ethoxy-2-(4-fluorophenyl)pyridin-3-yl)-1H-indazole]: the IC50 came out at 18600 nM.

Consider `CCOc1cnc(-c2ccc(F)c(F)c2)c(-c2ccc3[nH]ncc3c2)c1` [Compound 7, 5-(5-Ethoxy-2-(3,4-difluorophenyl)pyridin-3-yl)-1H-indazole], for which the IC50 is 23100 nM.

With `COc1cnc(-c2ccc(F)c(C)c2)c(-c2ccc3[nH]ncc3c2)c1` [Compound 8, 5-(2-(4-Fluoro-3-methylphenyl)-5-methoxypyridin-3-yl)-1H-indazole], the IC50 is 5350 nM.

On to `Cc1cc(-c2ncc(Cl)cc2-c2ccc3[nH]ncc3c2)ccc1F` [Compound 9, 5-(5-Chloro-2-(4-fluoro-3-methylphenyl)pyridin-3-yl)-1H-indazole], for which the IC50 came out at 5140 nM.

In the case of `Cc1cnc(-c2ccc(F)c(C)c2)c(-c2ccc3[nH]ncc3c2)c1` [Compound 11, 5-(2-(4-Fluoro-3-methylphenyl)-5-methylpyridin-3-yl)-1H-indazole], the IC50 amounted to 594 nM.

Take `Cc1ccc(-c2ccc3[nH]ncc3c2)c(-c2ccc(F)c(C)c2)n1` [Compound 12, 5-(2-(4-Fluoro-3-methylphenyl)-6-methylpyridin-3-yl)-1H-indazole]: the IC50 was found to be 18900 nM.

Regarding `Nc1cnc(-c2cccc(C3CC3)c2)c(-c2ccc3[nH]ncc3c2)c1` [Compound 15, 6-(3-Cyclopropylphenyl)-5-(1H-indazol-5-yl)pyridin-3-amine], the IC50 was 64.9 nM.

Consider `CC(C)c1cccc(-c2ncc(N)cc2-c2ccc3[nH]ncc3c2)c1` [Compound 16, 5-(1H-Indazol-5-yl)-6-(3-isopropylphenyl)pyridin-3-amine], for which the IC50 was 6340 nM.

`Cc1cc(-c2ncc(N)cc2-c2ccc3[nH]ncc3c2)ccc1F` [Compound 17, 6-(4-Fluoro-3-methylphenyl)-5-(1H-indazol-5-yl)pyridin-3-amine]: the IC50 worked out at 336 nM.

With `Cc1cc(-c2ncc(N)cc2-c2ccc3ncsc3c2)ccc1F` [Compound 18, 5-(Benzo[d]thiazol-6-yl)-6-(4-fluoro-3-methylphenyl)pyridin-3-amine], the IC50 amounted to 142 nM.

For `Nc1cnc(-c2cccc(C3CC3)c2)c(-c2ccc3ncsc3c2)c1` [Compound 19, 5-(Benzo[d]thiazol-6-yl)-6-(3-cyclopropylphenyl)pyridin-3-amine], the IC50 was 83 nM.

As to `Cc1cccc(-c2ncc(N)cc2-c2ccc3ncsc3c2)c1` [Compound 20, 5-(Benzo[d]thiazol-6-yl)-6-m-tolylpyridin-3-amine], the IC50 is 104 nM.

With `Cc1cc(-c2nc(N)ccc2-c2ccc3[nH]ncc3c2)ccc1F` [Compound 21, 6-(4-Fluoro-3-methylphenyl)-5-(1H-indazol-5-yl)pyridin-2-amine], the IC50 was 1920 nM.

For `Nc1ccc(-c2ccc3[nH]ncc3c2)c(-c2cccc(C3CC3)c2)n1` [Compound 22, 6-(3-Cyclopropylphenyl)-5-(1H-indazol-5-yl)pyridin-2-amine], the IC50 came out at 1410 nM.

For `Cc1cccc(-c2nc(N)ccc2-c2ccc3[nH]ncc3c2)c1` [Compound 23, 5-(1H-Indazol-5-yl)-6-m-tolylpyridin-2-amine], the IC50 worked out at 2240 nM.

In the case of `CC(=O)Nc1cnc(-c2ccc(F)c(C)c2)c(-c2ccc3[nH]ncc3c2)c1` [Compound 24, N-(6-(4-Fluoro-3-methylphenyl)-5-(1H-indazol-5-yl)pyridin-3-yl)acetamide], the IC50 is 671 nM.

`CC(=O)Nc1cnc(-c2cccc(C3CC3)c2)c(-c2ccc3[nH]ncc3c2)c1` [Compound 25, N-(6-(3-Cyclopropylphenyl)-5-(1H-indazol-5-yl)pyridin-3-yl)acetamide]: the IC50 was 612 nM.

For `Cc1cc(-c2nc(N)ccc2-c2ccc3ncsc3c2)ccc1F` [Compound 27, 5-(Benzo[d]thiazol-6-yl)-6-(4-fluoro-3-methylphenyl)pyridin-2-amine], the IC50 was determined as 453 nM.

On to `Nc1ccc(-c2ccc3ncsc3c2)c(-c2cccc(C3CC3)c2)n1` [Compound 28, 5-(Benzo[d]thiazol-6-yl)-6-(3-cyclopropylphenyl)pyridin-2-amine], for which the IC50 was 1750 nM.

Turning to `Cc1cccc(-c2nc(N)ccc2-c2ccc3ncsc3c2)c1` [Compound 29, 5-(Benzo[d]thiazol-6-yl)-6-m-tolylpyridin-2-amine], the IC50 was determined as 1450 nM.

On to `Cc1cc(-c2ncc(NS(C)(=O)=O)cc2-c2ccc3[nH]ncc3c2)ccc1F` [Compound 30, N-(6-(4-Fluoro-3-methylphenyl)-5-(1H-indazol-5-yl)pyridin-3-yl)methanesulfonamide], for which the IC50 is 3700 nM.

Regarding `CS(=O)(=O)Nc1cnc(-c2cccc(C3CC3)c2)c(-c2ccc3[nH]ncc3c2)c1` [Compound 31, N-(6-(3-Cyclopropylphenyl)-5-(1H-indazol-5-yl)pyridin-3-yl) methanesulfonamide], the IC50 is 1900 nM.

`Cc1cccc(-c2ncc(NS(C)(=O)=O)cc2-c2ccc3[nH]ncc3c2)c1` [Compound 32, N-(5-(1H-Indazol-5-yl)-6-m-tolylpyridin-3-yl) methanesulfonamide]: the IC50 was found to be 2800 nM.

As for `Cc1cc(-c2ncccc2-c2ccc3ncn(CCN4CCOCC4)c3c2)ccc1F` [Compound 35, 6-(2-(4-Fluoro-3-methylphenyl)pyridin-3-yl)-1-(2-morpholinoethyl)-1H-benzo[d]imidazole], the IC50 came out at 10800 nM.

Take `Cc1cccc(-c2ncccc2-c2ccc3ncn(CCN4CCOCC4)c3c2)c1` [Compound 36, 1-(2-Morpholinoethyl)-6-(2-m-tolylpyridin-3-yl)-1H-benzo[d]imidazole]: the IC50 was 19700 nM.

As to `Cc1cc(-c2ncccc2-c2ccc3ncn(CCN4CCN(C)CC4)c3c2)ccc1F` [Compound 37, 6-(2-(4-Fluoro-3-methylphenyl)pyridin-3-yl)-1-(2-(4-methylpiperazin-1-yl)ethyl)-1H-benzo[d]imidazole], the IC50 was 18100 nM.

`CCOCCCn1cnc2ccc(-c3cccnc3-c3cccc(C)c3)cc21` [Compound 39, 1-(3-Ethoxypropyl)-6-(2-m-tolylpyridin-3-yl)-1H-benzo[d]imidazole]: the IC50 amounted to 14300 nM.
